Literature values in US20040006111A1, “Transmucosal delivery of proton pump inhibitors” (priority 2002, published 2004).

[1] = omeprazole buccal adhesive tablets (sodium alginate, HPMC, magnesium oxide, croscarmellose sodium), absorption through the buccal mucosa

bioavailability (omeprazole buccal adhesive tablet formulation of Choi et al.): low | peak plasma concentration [1]: 370 ng/mL | time to generate peak plasma concentration [1]: 45 min
SMILES: COc1ccc2[nH]c([S+]([O-])Cc3ncc(C)c(OC)c3C)nc2c1 (stereo not drawn) [omeprazole]
